Source: patent publication US20180230160A1, “2-AMINO-7A-PHENYL-3,4,4A,5,7,7A-HEXAHYDROFURO[3,4-B]PYRIDINES AS BACE1 INHIBITORS” (H. Lundbeck A/S, priority 2015, published 2018)
Like-named read-outs stand apart in the source and are kept apart here.

Assays:
[1] = biological target: human BACE1 (Homo sapiens, UniProt P56817); assay: BACE1 binding assay (SPA-based radioligand binding); set-up: biotin (biotinylated form); made in house; host or cells: Freestyle HEK293 cells; conditions: pH 4.5, 10 nM radioligand, Ki=IC50/(1+L/Kd)
Sequence of human BACE1 (P56817 46-501): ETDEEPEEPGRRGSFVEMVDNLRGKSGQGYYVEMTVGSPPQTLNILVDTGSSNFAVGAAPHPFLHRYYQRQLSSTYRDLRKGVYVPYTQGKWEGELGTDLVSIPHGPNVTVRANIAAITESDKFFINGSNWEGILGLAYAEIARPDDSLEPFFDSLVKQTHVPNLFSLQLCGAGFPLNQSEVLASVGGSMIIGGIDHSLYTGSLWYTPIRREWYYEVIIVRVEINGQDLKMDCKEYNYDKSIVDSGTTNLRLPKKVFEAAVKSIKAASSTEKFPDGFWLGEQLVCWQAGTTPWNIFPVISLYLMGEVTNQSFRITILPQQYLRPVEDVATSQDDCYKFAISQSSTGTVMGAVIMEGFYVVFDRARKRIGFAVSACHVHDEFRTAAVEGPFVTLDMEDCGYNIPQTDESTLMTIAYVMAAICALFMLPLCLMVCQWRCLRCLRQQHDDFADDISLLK
Method: The binding assay was performed as SPA-based assay using a biotinylated form of human BACE1 recombinantly expressed and subsequently purified from Freestyle HEK293 cells. The binding assay was run in a 50 mM sodium acetate buffer, pH 4.5 containing 50 mM NaCl and 0.03% Tween-20 in white clear bottom 384 plates (Corning #3653). 10 nM (final concentration) radioligand ([^3H]—N-((1S,2R)-1-benzyl-3-cyclopropylamino-2-hydroxy-propyl)-5-(methanesulfonyl-methyl-amino)-N—((R)-1-phenyl-ethyl)-isophthalamide) (TRQ11569 purchased from GE Healthcare) was mixed with test compound at a given concentration, 6 nM (final concentration) human BACE1 and 25 μg Streptavidin coated PVT core SPA beads (RPNQ0007, GE Healthcare Life Sciences) in a total volume of 40 μl. Several concentrations of each test compound were tested in the assay for […] determination. The plates were incubated for one hour at room temperature and counted in a Wallac Trilux counter. Total and non-specific binding were determined using buffer and 1 μM (final concentration) of the high affinity BACE1 reference inhibitor (S)-6-[3-chloro-5-(5-prop-1-ynyl-pyridin-3-yl)-thiophen-2-yl]-2-imino-3,6-dimethyl-tetrahydro-pyrimidin-4-one, respectively. For each test compound, a 1050 value (the concentration mediating 50% inhibition of the specific binding of the radioligand) was determined from concentration-response curve and used to calculate the Ki from the equation Ki=IC50/(1+L/Kd), where L and Kd are the final concentration of the radioligand used in the assay and the dissociation constant of the radioligand, respectively. The Kd of the radioligand was determined from saturation binding experiments.

[2] = test system: P-gp (MDR1); assay: MDCK-MDR1 assay (permeability, efflux ratio); type: in vitro ADME; conditions: dog, Papp BA/Papp AB, 60-minute incubation
Method: The permeability of the test compounds was assessed in MDCK-MDR1 cells that were cultured to confluency (4-6 days) in a 96 transwell plate. Test compounds were diluted with the transport buffer (HBSS+1% BSA) to a concentration of 0.5 μM and applied to the apical or basolateral side of the cell monolayer. Permeation of the test compounds from A to B direction or B to A direction was determined in triplicate over a 60-minute incubation time at 37° C. and 5% CO2 with a relative humidity of 95%. Test compounds were quantified by LC-MS/MS analysis based on the peaks area ratios of analyte/IS in both the receiver and donor wells of the transwell plate. The apparent permeability coefficient Papp (cm/s) was calculated using the equation: […]
Where dCr/dt is the cumulative concentration of compound in the receiver chamber as a function of time (μM/s); Vr is the solution volume in the receiver chamber (0.05 mL on the apical side; 0.25 mL on the basolateral side); A is the surface area for the transport, i.e. 0.0804 cm^2 for the area of the monolayer; CO is the initial concentration in the donor chamber (μM).

[3] = Compound exposure in rat brain and plasma after oral dosing (DMPK analysis); type: in vivo; conditions: male, Sprague Dawley, 3 hours post dose; for concentration at 3 h: read-out: Exp (exposure); for Kp at 3 h: brain/plasma, read-out: Brain/Plasma ratio
Method: (§1) Young adult Male Sprague Dawley rats of approximately 250 g weight were purchased from Charles River and received 0-30 mg/kg of vehicle (10% HP betaCD+1M MeSO4, pH 2.5) or test compounds (dissolved in vehicle) only by oral gavage (p.o). The compounds are dosed at a volume of 5 ml/kg. Cohorts of 5-10 animals were established for each treatment condition.
(§2) At T=180 minutes after initial dosing the animals were stunned and decapitated with a guillotine. Trunk-blood was sampled in EDTA coated tubes after decapitation of the animal. The blood was centrifuged at 2200G at 4° C. for 15 minutes and the plasma was collected and frozen at −80° C. The blood was aliquoted for Aβ ELISA and DMPK analysis. Immediately following sacrifice, the brain was extracted and split into 2 halves. The right hemibrains were snap frozen on dry ice and stored at −80° C. The left half was dissected; with the front forebrain taken for Aβ ELISA and the remainder used for DMPK analysis. These samples were also snap frozen on dry ice and stored at −80° C. until use for analysis.
The results of the administration of representative Compounds of Examples 1, 2, 5, […], of brain and plasma samples collected at 3 hours post dose and then following exposures, as described above, are tabulated below.

[4] = test system: Aβ40 peptide; assay: Assessment of Aβ peptide levels in rat brain and plasma following BACE1 inhibition (Aβ40 ELISA); type: in vivo; conditions: 3 hours post dose, vs vehicle
Method: Assessment of Aβ Peptide Levels in Rat Brain and Plasma Following BACE1 Inhibition. Animals.
as §1, §2
The cortex samples were thawed slightly on wet ice before they were homogenized with a small volume dispersing instrument (T10 basic ULTRA-TURRAX®) which was set at speed 5 for approximately 5-7 sec. The tissue was processed in a 10 times volume of the weight, for example 100 mg of tissue was homogenized in 1000 μL of Homogenization buffer. Homogenization buffer: 50 ml Milli Q water+50 nM NaCl+0.2% Diethylamin (DEA)+1 tablet of Complete Protease inhibitor cocktail+1 nM 4-(2-aminoethyl) benzenesulfonyl fluoride hydrochloride irreversible serine protease inhibitor (AEBSF).
After homogenization 450 μL aliquots of the samples are collected into a 1.5 ml Eppendorf tube and placed on wet ice, 0.5% NP-40 (50 ul) was added to all samples and then they were incubated on ice for 30 min. After which all samples were sonicated using an Ultrasonic homogenizer with 20 kHz homogeneous sound (SONOPLUS HD2070, Bandelin Electronic) 10 pulse set at 12-13% power to extract all the Aβ species. The samples were then centrifuged (Ole Dich 157 MPRF Micro centrifuge) at 20000G for 20 minutes at 4° C. After centrifugation 285 μL of the supernatant was pipetted into 600 μL microtubes tubes and neutralized with 15 μL of 1M Tris-HCL buffer.
WAKO 294-62501 Human/Rat Abeta amyloid (40) kit was used for all ELISA analyses. 30 μL plasma samples or 30 μL of the cortex supernatants generated as described above were placed in 600 μL microtubes tubes on wet ice. To this 30 μL of 8M urea (AppliChem A1049, 9025) was added to generate a 2-fold dilution. Both plasma and cortex supernatants were incubated on ice for 30 min. Standard rows were prepared from the standard peptide stock provided in the kit and standard diluent containing 1.6M urea (200 μL 8M urea+800 μL of standard diluent) and 0.8M urea (400 μL 8M Urea+3600 μL Standard diluent). A serial 2-fold dilution of Aβ40 from 100 pmol/ml to 0 pmol/L was prepared for the assay.
After incubation with urea, all samples were further diluted by addition of 5 times standard diluent from the Kit. This was done by adding 240 μL Standard Diluent to 60 μL sample/urea mixture, which was then mixed well. 100 μL of each diluted sample was pipetted into designated wells of the ELISA plate in duplicates. The plate was then covered and incubated overnight at 4° C. The following day, the ELISA kit was brought to room temperature before use. The incubated plate was washed 5 times with the 20× washing solution diluted in Milli Q water. 100 μL HRP-conjugate was applied to each well, and the plate was covered and incubates at 4° C. for 1 hr. The wash was repeated again for 5 times. 100 μL 3,3′,5,5′-Tetramethylbenzidine (TMB) solution was applied to each well and the plate was covered and incubated in the dark at room temperature for 30 minutes. […]

C[C@]1(F)C[C@]2(F)COC[C@]2(c2cc(NC(=O)c3cnc(C(F)F)cn3)ccc2F)N=C1N [Example 3, N-(3-((3S,4aR,7aS)-2-amino-3,4a-difluoro-3-methyl-3,4,4a,5,7,7a-hexahydrofuro[3,4-b]pyridin-7a-yl)-4-fluorophenyl)-5-(difluoromethyl)pyrazine-2-carboxamide]
Ki [1]: 48 nM
efflux ratio at 60 min, 0.5 μM [2]: 0.96

Cc1nc(C(=O)Nc2ccc(F)c([C@]34COC[C@@]3(F)C[C@@](C)(F)C(N)=N4)c2)co1 [Example 10, N-(3-((3R,4aR,7aS)-2-amino-3,4a-difluoro-3-methyl-3,4,4a,5,7,7a-hexahydrofuro[3,4-b]pyridin-7a-yl)-4-fluorophenyl)-2-methyloxazole-4-carboxamide]
Ki [1]: 22 nM
efflux ratio at 60 min, 0.5 μM [2]: 2.46

[2H]C([2H])([2H])Oc1cnc(C(=O)Nc2ccc(F)c([C@]34COC[C@@]3(F)C[C@@](C)(F)C(N)=N4)c2)cn1 [Example 13, N-(3-((3R,4aR,7aS)-2-amino-3,4a-difluoro-3-methyl-3,4,4a,5-tetrahydrofuro[3,4-b]pyridin-7a-yl)-4-fluorophenyl)-5-(methoxy-d3)pyrazine-2-carboxamide]
Ki [1]: 29 nM

NC1=N[C@@]2(c3cc(NC(=O)c4ccc(F)cn4)cc(F)c3F)COC[C@H]2C[C@]1(F)CF [Example 19, N-[3-[(3R,4aS,7aS)-2-amino-3-fluoro-3-(fluoromethyl)-4,4a,5,7-tetrahydrofuro[3,4-b]pyridin-7a-yl]-4,5-difluoro-phenyl]-5-fluoro-pyridine-2-carboxamide]
Ki [1]: 340 nM

C[C@@]1(F)C[C@]2(F)COC[C@]2(c2cc(NC(=O)c3ccc(Cl)cn3)ccc2F)N=C1N [Example 14, N-(3-((3R,4aR,7aS)-2-amino-3,4a-difluoro-3-methyl-3,4,4a,5,7,7a-hexahydrofuro[3,4-b]pyridin-7a-yl)-4-fluorophenyl)-5-chloropicolinamide]
Ki [1]: 9.3 nM
efflux ratio at 60 min, 0.5 μM [2]: 0.91

COc1ccc(C(=O)Nc2cc(F)c(F)c([C@]34COC[C@H]3C[C@@](F)(CF)C(N)=N4)c2)nc1 [Example 25, N-[3-[(3S,4aS,7aS)-2-amino-3-fluoro-3-(fluoromethyl)-4,4a,5,7-tetrahydrofuro[3,4-b]pyridin-7a-yl]-4,5-difluoro-phenyl]-5-methoxy-pyridine-2-carboxamide]
Ki [1]: 230 nM

C[C@]1(F)C[C@]2(F)COC[C@]2(c2cc(NC(=O)c3ccc(Cl)cn3)ccc2F)N=C1N [Example 6, N-(3-((3S,4aR,7aS)-2-amino-3,4a-difluoro-3-methyl-3,4,4a,5,7,7a-hexahydrofuro[3,4-b]pyridin-7a-yl)-4-fluorophenyl)-5-chloropicolinamide]
Ki [1]: 6.4 nM
efflux ratio at 60 min, 0.5 μM [2]: 1.01

[2H]C([2H])([2H])Oc1ccc(C(=O)Nc2ccc(F)c([C@]34COC[C@@]3(F)C[C@](C)(F)C(N)=N4)c2)nc1 [Example 1, N-(3-((3S,4aR,7aS)-2-amino-3,4a-difluoro-3-methyl-3,4,4a,5-tetrahydrofuro[3,4-b]pyridin-7a-yl)-4-fluorophenyl)-5-(methoxy-d3)picolinamide]
concentration at 3 h ([3]; Brain, 10 mg/kg p.o.): 194 ng/g
concentration at 3 h ([3]; Brain, 30 mg/kg p.o.): 951 ng/g
concentration at 3 h ([3]; Plasma, 10 mg/kg p.o.): 184 ng/g
concentration at 3 h ([3]; Plasma, 30 mg/kg p.o.): 634 ng/g
Kp at 3 h ([3]; 10 mg/kg p.o.): 1.06
Kp at 3 h ([3]; 30 mg/kg p.o.): 1.5
Aβ40 reduction ([4]; Brain, 10 mg/kg p.o.): 34%
Aβ40 reduction ([4]; Brain, 30 mg/kg p.o.): 54%
Aβ40 reduction ([4]; Plasma, 10 mg/kg p.o.): 38%
Aβ40 reduction ([4]; Plasma, 30 mg/kg p.o.): 52%

Cc1csc(C(=O)Nc2ccc(F)c([C@]34COC[C@@]3(F)C[C@@](C)(F)C(N)=N4)c2)n1 [Example 9, N-(3-((3R,4aR,7aS)-2-amino-3,4a-difluoro-3-methyl-3,4,4a,5,7,7a-hexahydrofuro[3,4-b]pyridin-7a-yl)-4-fluorophenyl)-4-methylthiazole-2-carboxamide]
Ki [1]: 23 nM
efflux ratio at 60 min, 0.5 μM [2]: 1.33

C[C@@]1(F)C[C@]2(F)COC[C@]2(c2cc(NC(=O)c3cnc(C(F)F)cn3)ccc2F)N=C1N [Example 8, N-(3-((3R,4aR,7aS)-2-amino-3,4a-difluoro-3-methyl-3,4,4a,5,7,7a-hexahydrofuro[3,4-b]pyridin-7a-yl)-4-fluorophenyl)-5-(difluoromethyl)pyrazine-2-carboxamide]
Ki [1]: 14 nM
efflux ratio at 60 min, 0.5 μM [2]: 1.23
